# Assay results as given in patent US20090163715A1, “Intermediate in Production of [2-(3,3,5,5-Tetramethylcyclohexyl)phenyl]Piperazine Compound” (EISAI R&D MANAGEMENT CO., LTD., priority 2005, published 2009).
# Key:
# Jurkat cells = test: Jurkat cell adhesion system (PMA-stimulated adhesion to immobilized human fibronectin); assay type: cell-based; details: Jurkat cells on human fibronectin-coated 96-well plate, PMA stimulation, 37° C. for 45-60 minutes; read-out: IC50 (concentration which inhibited the increase in the number of adhered cells by the PMA-stimulation by 50%)
# Method: Human fibronectin (Becton Dickinson Biosciences) was diluted with phosphate-buffered saline (hereinafter abbreviated as PBS; Sigma) to 0.1-0.01 μg/mL, and the diluted solution was added to a 96-well plate (Becton Dickinson) at 50 μL/well, and allowed to stand overnight at 4° C. On the following day, the supernatant was removed from the plate, and then PBS containing 1% bovine serum albumin (hereinafter abbreviated as BSA; Sigma) was added thereto at 100 μL/well and incubation was performed at 37° C. for 2 hours in a CO2 incubator (Hirasawa).
# The supernatant was removed from each plate and Jurkat cells suspended in RPMI-1640 (Sigma) containing 1 mg/mL BSA were added at 80 μL/well for 2.5×10^5 cells/well. The compound (B) diluted to different concentrations with RPMI-1640 containing […] BSA was immediately added at 10 μL/well, and then 100 nM phorbol myristate acetate (hereinafter abbreviated as PMA; Sigma) in RPMI-1640 containing 1 mg/mL BSA was added at 10 μL/well and the plate was incubated in a CO2 incubator at 37° C. for 45-60 minutes. […] After incubation, 50 mM glycine buffer (pH 10.4) containing 5 mM EDTA was added at 90 μL/well, and the absorbance at 405 nm was measured with an EL340 Automated Microplate Reader (BIO-TEK) to determine the adhered cell count.
# [1] = tested on: human peripheral blood neutrophils; test: Human peripheral blood neutrophil adhesion system (PMA-stimulated adhesion to HUVEC immobilized plate); assay type: cell-based; details: 0.75 h; BCECF-AM labeled human neutrophils on HUVEC immobilized plate, PMA stimulation, 37° C. for 45 minutes; read-out: IC50 (concentration which inhibited the increase in the number of adhered cells by the PMA-stimulation by 50%)
# Method: To a plastic centrifugation tube containing 100 units of heparin sodium (Shimizu Pharmaceutical) was added 25 mL of fresh blood sampled from a healthy human. After adding and mixing therewith 8 mL of physiological saline (Otsuka Pharmaceutical) containing 6% Dextran (Nacalai), the mixture was allowed to stand at room temperature for 45 minutes for sedimentation of the erythrocytes. The resultant supernatant was transferred to another plastic centrifugation tube and combined with an equivalent volume of PBS, and then centrifuged at 1600 rpm for 7 minutes at room temperature. The obtained hematocyte fraction was suspended in 4 mL of PBS, and the suspension was superposed on 4 mL of Ficoll-Paque™ PLUS (Amersham Biosciences). […]
# To 6.5 mL of RPMI-1640 medium (Sigma) containing 1 mg/mL of BSA were added 0.5 mL of a suspension of BCECF-AM labeled neutrophils at 5×10^7 cells/mL stored in ice, which was mixed, and the mixture was added at 80 μL/well to a HUVEC immobilized plate. […] The supernatant was removed from the plate, which was then washed several times with RPMI-1640 at 100 μL/well, and then PBS containing 0.1% NP-40 (Calbiochem) was added thereto at 100 μL/well and the fluorescent intensity was measured with an ARVO™SX 1420 multi label counter (Wallac) to determine the number of adhered cells.
structure (smiles),measurement,setting,value
"CC1(C)CC(c2ccccc2N2CCN(CC3CC3)CC2)CC(C)(C)C1 [compound (B), 1-Cyclopropylmethyl-4-[2-(3,3,5,5-tetramethylcyclohexyl)phenyl]piperazine methanesulfonate]",IC50,Jurkat cells,4.7 µM
same,IC50,[1],7.1 µM
